Tests used:
Experiment in all cases: relative viability (nuclei count vs DMSO), 5 days (fraction); higher = more cells survive
[1] = compound: CCOC(=O)CCNc1cc(N2CCc3ccccc3CC2)nc(-c2ccccn2)n1 [GSK-J4]
Outline: (§1)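 Lung cancer cell lines in 1536-well plates were kept overnight at 37 °C, then pinned with five library-drug doses (not always all listed) spaced by √10 on vehicle-anchored plates. After 5 days without medium change, cells were fixed, permeabilised and Hoechst-stained in one step, imaged at 4×, and nuclei were counted with MetaXpress. Viability is treated-well nuclei divided by vehicle-well nuclei, taken as the median over plates. Plates passed only with control CV below 25% and at least one doubling.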

[2] = compound: CN1CCC(CC1)OC2=CC(=C(C=C2)NC3=NC=C4C(=N3)N(C(=O)N4C)C5CCCC5)OC [AZ3146]
Outline: as §1

[3] = compound: CN1CCC(CC1)OC2=CC(=C(C=C2)NC3=NC=C4C(=N3)N(C(=O)N4C)C5CCCC5)OC [AZ3146] + Nc1nc2[nH]cc(CCc3ccc(C(=O)N[C@@H](CCC(=O)O)C(=O)O)cc3)c2c(=O)[nH]1 [Pemetrexed] (partner 0.2 µM)
Outline: (§2)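 Five library-drug doses in √10 steps were combined with a fixed anchor-drug dose, or a single drug was given alone, by pin tool to lung cancer cell lines in 1536-well plates the day after seeding. Nuclei were stained and counted after 5 days. Relative viability is the nuclei count in treated wells over that in vehicle wells, taken as the median of duplicate plates.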

[4] = compound: CCOC(=O)CCNc1cc(N2CCc3ccccc3CC2)nc(-c2ccccn2)n1 [GSK-J4] + Cc1nc(NC(=O)N2CCC[C@H]2C(N)=O)sc1-c1ccnc(C(C)(C)C(F)(F)F)c1 [Alpelisib] (partner 2 µM)
Outline: as §2

Cell Line	relative viability ([1]; 0.5 µM)	relative viability ([1]; 1.581 µM)	relative viability ([1]; 5 µM)	relative viability ([1]; 15.81 µM)	relative viability ([1]; 50 µM)	relative viability ([2]; 0.08 µM)	relative viability ([2]; 0.253 µM)	relative viability ([2]; 0.8 µM)	relative viability ([2]; 2.53 µM)	relative viability ([2]; 8 µM)	relative viability ([3]; first compound 0.8 µM)	relative viability ([3]; first compound 2.53 µM)	relative viability ([3]; first compound 8 µM)	relative viability ([4]; first compound 0.5 µM)	relative viability ([4]; first compound 1.581 µM)	relative viability ([4]; first compound 5 µM)	relative viability ([4]; first compound 15.81 µM)	relative viability ([4]; first compound 50 µM)	relative viability ([3]; first compound 0.08 µM)	relative viability ([3]; first compound 0.253 µM)
LK-2	1.07	0.886	1.22	0.756	1	0.743	0.782	0.961	1.08	1.05	0.168	0.318	0.307	1.04	1.08	1.41	1.3	1.23	–	–
LOU-NH91	1.12	1.03	0.724	0.868	0.952	1.01	0.935	0.957	0.986	0.96	0.362	0.368	0.411	0.743	0.689	0.649	0.688	0.672	0.327	0.448
LU99A	0.819	0.872	–	0.884	0.756	0.783	1.04	0.989	0.964	1.11	0.181	0.165	0.186	0.448	0.494	0.535	0.498	0.322	–	0.188
LXF-289	1.02	0.903	0.967	1.02	0.983	0.944	0.991	0.989	1.02	0.982	0.912	0.924	0.799	0.971	0.957	1.04	0.991	0.956	0.953	0.85
NCI-H23	0.956	0.761	0.814	0.803	0.742	1.13	1.06	0.959	1.05	0.758	0.857	0.787	0.45	0.781	–	0.892	0.605	0.604	0.789	0.645
NCI-H322M	1.05	1.04	1.1	0.839	0.818	0.872	0.927	0.823	0.958	0.827	0.609	0.574	0.642	0.901	0.718	0.734	0.747	0.733	0.59	0.585
NCI-H358	0.981	0.843	0.977	0.819	0.807	0.977	0.923	0.873	1.1	0.785	0.192	0.171	0.156	0.868	0.639	0.98	0.876	0.773	0.153	0.168
NCI-H441	0.967	0.85	0.827	0.92	0.796	0.939	1.18	1.01	1.05	1.03	0.251	0.266	0.274	0.741	0.521	0.475	0.736	0.57	0.256	0.251
NCI-H460	0.957	0.8	0.767	0.981	1.01	0.94	1.01	1.02	0.997	0.78	0.0797	0.06	0.0682	0.54	0.377	0.554	0.456	0.433	0.0552	0.0628
NCI-H520	0.985	0.621	0.857	0.702	0.853	0.875	0.971	0.832	1.04	0.999	0.647	0.543	0.422	0.899	0.781	1.2	0.868	0.834	0.843	0.735
NCI-H596	1.04	0.833	0.92	0.889	0.903	0.985	0.841	0.931	0.979	0.963	0.574	0.486	0.556	0.479	0.503	0.525	0.457	0.477	0.478	0.449
NCI-H647	0.966	0.832	0.742	0.886	0.936	0.777	0.919	0.94	1.07	0.92	0.188	0.204	0.115	1.22	1.03	0.927	1.05	0.975	0.22	0.178
NCI-H650	0.931	0.653	0.494	0.832	0.751	0.776	0.822	0.867	1.02	1.03	0.78	0.949	0.948	0.926	1.11	0.729	1.07	0.767	0.871	0.747
NCI-H661	0.969	0.922	0.904	0.927	0.723	1.02	0.988	0.92	0.98	1.05	0.956	0.92	0.818	0.727	0.602	0.578	0.5	0.53	0.939	0.894
NCI-H838	1.04	0.895	0.635	0.887	0.883	0.994	0.939	0.914	0.963	0.734	0.283	0.269	0.211	1.02	0.927	–	0.962	0.905	0.233	0.239
NCI-H1355	0.979	0.916	0.821	0.902	0.943	0.941	0.971	1	1.07	0.961	1.03	1.12	1.13	0.761	0.741	0.857	0.762	0.757	1.02	1.02

Cell Line	relative viability ([1]; 0.5 µM)	relative viability ([1]; 1.581 µM)	relative viability ([1]; 5 µM)	relative viability ([1]; 15.81 µM)	relative viability ([1]; 50 µM)	relative viability ([2]; 0.08 µM)	relative viability ([2]; 0.253 µM)	relative viability ([2]; 0.8 µM)	relative viability ([2]; 2.53 µM)	relative viability ([2]; 8 µM)	relative viability ([3]; first compound 0.8 µM)	relative viability ([3]; first compound 2.53 µM)	relative viability ([3]; first compound 8 µM)	relative viability ([4]; first compound 0.5 µM)	relative viability ([4]; first compound 1.581 µM)	relative viability ([4]; first compound 5 µM)	relative viability ([4]; first compound 15.81 µM)	relative viability ([4]; first compound 50 µM)	relative viability ([3]; first compound 0.08 µM)	relative viability ([3]; first compound 0.253 µM)
NCI-H1395	1.05	0.893	0.827	0.964	0.81	0.958	0.879	0.86	0.985	0.85	–	0.91	0.661	1.03	0.88	0.845	1.14	0.821	0.783	0.746
NCI-H1437	1.01	0.909	0.923	1.01	0.609	0.887	0.936	0.953	1.03	0.983	0.3	0.346	0.294	0.904	0.979	0.908	0.873	0.428	0.283	0.327
NCI-H1563	0.952	1.1	0.892	0.894	0.985	0.837	0.973	1.04	0.902	0.909	0.717	0.797	0.825	0.885	0.85	0.872	0.891	1.02	0.673	0.645
NCI-H1651	0.986	0.856	0.973	0.948	0.96	0.902	0.879	0.968	0.952	1.02	0.463	0.569	0.595	0.888	0.814	0.957	0.93	0.892	0.58	0.579
NCI-H1666	0.977	0.79	1.19	1	0.804	1.09	0.953	1.02	1.05	1.05	0.83	0.901	0.788	0.881	–	1.08	0.985	0.508	0.771	0.825
NCI-H1734	0.9	0.909	0.686	0.765	0.807	0.96	1.09	0.954	1.04	0.98	0.388	0.428	0.413	0.679	0.597	0.568	0.671	0.591	0.414	0.433
NCI-H1755	0.969	0.847	0.728	0.929	0.916	0.933	1.02	0.955	0.994	0.984	0.463	0.509	0.496	0.897	0.763	1.02	0.915	0.852	0.666	0.532
NCI-H1792	0.932	0.606	0.925	0.697	0.832	0.759	0.776	0.93	0.841	0.905	0.68	1.04	0.701	0.708	0.664	0.734	0.575	0.837	0.606	0.871
NCI-H1793	1.06	0.786	0.727	0.48	0.443	0.902	0.805	0.812	1.07	0.691	0.565	1.16	0.51	0.79	0.737	0.715	0.602	0.275	1.02	0.792
NCI-H1915	0.924	0.856	–	0.969	1.12	0.9	1.04	1.07	1.03	0.991	0.602	0.511	0.49	0.972	0.97	1.04	0.99	1.01	0.502	0.517
NCI-H1944	0.939	0.874	0.828	0.734	0.931	0.777	0.919	1.07	1.03	0.982	0.636	0.646	0.705	0.833	0.709	0.964	0.897	0.822	0.484	0.616
NCI-H1975	0.972	0.857	–	0.953	1.09	0.859	0.993	1.06	1.02	0.844	0.294	0.295	0.244	0.615	0.613	–	0.678	0.837	0.312	0.311
NCI-H1993	1.13	1.09	1.08	0.756	0.533	0.926	0.843	1	1.03	0.489	0.539	0.619	0.561	0.657	0.643	0.702	0.667	0.621	0.567	0.542
NCI-H2009	0.951	0.89	0.733	0.966	0.545	0.928	0.997	1.03	1.02	0.713	1.04	0.989	1.03	1.1	1.16	1.08	1.1	0.966	1.05	0.996
NCI-H2023	0.942	0.853	1.07	0.906	0.856	0.935	0.912	0.969	0.871	0.296	0.226	0.216	0.129	0.604	0.471	0.75	0.582	0.583	0.207	0.238
NCI-H2085	1.02	0.953	0.884	0.924	0.955	1	0.987	0.972	0.97	0.992	0.869	0.887	0.705	0.894	0.863	0.888	0.898	0.789	0.923	0.824
